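Growth conditions: 96-well plates. Treatment: test compound, 48 hours, 5 concentrations. Analysis: linear interpolation between bracketing concentrations; unreached endpoints set to highest concentration. GI50: concentration for 50% inhibition of growth. TGI denotes the concentration required for complete inhibition of growth.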
What was measured:
Experiment in all cases: DTP human tumour cell line panel, 48 h
DU-145 prostate = test system: DU-145 prostate
HOP-62 NSCLC = test system: HOP-62 NSCLC
MCF7 breast = test system: MCF7 breast
OVCAR-5 ovarian = test system: OVCAR-5 ovarian
SF-539 CNS = test system: SF-539 CNS
SK-MEL-28 melanoma = test system: SK-MEL-28 melanoma
UACC-257 melanoma = test system: UACC-257 melanoma
COLO 205 colon = test system: COLO 205 colon

Structure (SMILES)	TGI (DU-145 prostate)	TGI (HOP-62 NSCLC)	TGI (MCF7 breast)	TGI (OVCAR-5 ovarian)	TGI (SF-539 CNS)	TGI (SK-MEL-28 melanoma)	TGI (UACC-257 melanoma)	GI50 (COLO 205 colon)	TGI (COLO 205 colon)	GI50 (DU-145 prostate)	GI50 (HOP-62 NSCLC)	GI50 (MCF7 breast)	GI50 (OVCAR-5 ovarian)	GI50 (SF-539 CNS)	GI50 (SK-MEL-28 melanoma)	GI50 (UACC-257 melanoma)
COc1cc2c3c(c4ccc(OC)c(OC)c4c2cc1OC)CN1CCC[C@@H]1C3	2.9 µM	39.8 µM	> 20.3 µM	17.1 µM	0.425 µM	7.43 µM	17.7 µM	–	–	–	–	–	–	–	–	–
Cc1ncc(C(=O)Nc2ccc(CN3CCN(C)CC3)c(C(F)(F)F)c2)cc1C#Cc1cnc(N)c2cnccc12	6.91 µM	1.34 µM	3.69 µM	10.6 µM	1.29 µM	0.376 µM	1.29 µM	0.0276 µM	3.74 µM	0.0636 µM	0.0854 µM	1.18 µM	0.076 µM	0.193 µM	0.0181 µM	0.0689 µM
CC1=CC(=O)CC(C)(C)C1(O)/C=C/C(C)=C/C(=O)O (centres undefined)	> 100 µM	> 100 µM	> 100 µM	> 100 µM	> 100 µM	> 100 µM	> 100 µM	–	> 100 µM	–	–	–	–	–	–	–
C/C1=C/C(=O)O[C@@H]2C[C@@H](CC[C@H](C)/C=C\C=C\CC1)O[C@@](O)([C@@H]1CSC(=O)N1CO)C2	> 57.3 µM	0.176 µM	37.7 µM	> 33.9 µM	12.4 µM	0.603 µM	16 µM	0.0374 µM	0.146 µM	0.239 µM	0.0254 µM	13.1 µM	0.0367 µM	0.0274 µM	0.164 µM	0.42 µM
COc1cc2c(c(OC)c1O)-c1ccc(OC)c(=O)cc1[C@@H](NC(=O)C(F)(F)F)CC2	> 100 µM	2.4 µM	> 100 µM	> 100 µM	0.087 µM	> 100 µM	> 100 µM	–	0.0933 µM	–	–	–	–	–	–	–
Sc1ccc2ccccc2c1CNCc1ccccc1	69.3 µM	34.9 µM	> 100 µM	34 µM	29.3 µM	69.7 µM	> 100 µM	–	28.2 µM	–	–	–	–	–	–	–
CCOC(CCCNCCCn1c2c(c3cc(OC)c(OC)cc3c1=O)C(=O)c1cc3c(cc1-2)OCO3)OCC	–	–	9.3 µM	17.3 µM	–	12.5 µM	13.7 µM	7.81 µM	14.5 µM	–	–	1.19 µM	10.2 µM	–	6.22 µM	7.21 µM
O=Nc1ccc(O)c2ccccc12	3.22 µM	–	4.31 µM	4.21 µM	4.05 µM	6.12 µM	3.23 µM	1.93 µM	3.92 µM	1.77 µM	–	1.81 µM	2.13 µM	2.11 µM	2.59 µM	1.63 µM
O=Cc1ccc(-c2ccc(-c3nc4ccccc4[nH]3)cc2)s1	> 100 µM	41.1 µM	–	> 100 µM	–	> 100 µM	> 100 µM	–	–	25.8 µM	16.1 µM	–	37 µM	–	47.7 µM	45.4 µM
CCN(CC)CCCC(C)Nc1cc(-c2ccc(C(F)(F)F)cc2)c(C#N)c2nc3ccccc3n12 (centres undefined)	11.4 µM	7.18 µM	4.88 µM	5.15 µM	–	1.19 µM	3.75 µM	–	–	3.55 µM	2.2 µM	2.1 µM	2.29 µM	–	0.325 µM	2.08 µM

— PubChem BioAssay (NCI)
